Measured values as given in patent US11931431B2, “PSMA-targeted radiopharmaceutical for diagnosing and treating prostate cancer” (FUTURECHEM CO., LTD, priority 2018, dated 2024).
Entries after “also recorded” stand apart in the source; their conditions may differ. Read-outs that look alike come from different tables or passages of the source.

Tests used:
PSMA = PSMA (Homo sapiens, UniProt Q04609); assay: Measurement of binding capacity: competition with [^125I]30 on 22RV1 cells; set-up: host or cells: 22RV1 human prostate cancer cells
Chain of PSMA (Q04609 whole entry): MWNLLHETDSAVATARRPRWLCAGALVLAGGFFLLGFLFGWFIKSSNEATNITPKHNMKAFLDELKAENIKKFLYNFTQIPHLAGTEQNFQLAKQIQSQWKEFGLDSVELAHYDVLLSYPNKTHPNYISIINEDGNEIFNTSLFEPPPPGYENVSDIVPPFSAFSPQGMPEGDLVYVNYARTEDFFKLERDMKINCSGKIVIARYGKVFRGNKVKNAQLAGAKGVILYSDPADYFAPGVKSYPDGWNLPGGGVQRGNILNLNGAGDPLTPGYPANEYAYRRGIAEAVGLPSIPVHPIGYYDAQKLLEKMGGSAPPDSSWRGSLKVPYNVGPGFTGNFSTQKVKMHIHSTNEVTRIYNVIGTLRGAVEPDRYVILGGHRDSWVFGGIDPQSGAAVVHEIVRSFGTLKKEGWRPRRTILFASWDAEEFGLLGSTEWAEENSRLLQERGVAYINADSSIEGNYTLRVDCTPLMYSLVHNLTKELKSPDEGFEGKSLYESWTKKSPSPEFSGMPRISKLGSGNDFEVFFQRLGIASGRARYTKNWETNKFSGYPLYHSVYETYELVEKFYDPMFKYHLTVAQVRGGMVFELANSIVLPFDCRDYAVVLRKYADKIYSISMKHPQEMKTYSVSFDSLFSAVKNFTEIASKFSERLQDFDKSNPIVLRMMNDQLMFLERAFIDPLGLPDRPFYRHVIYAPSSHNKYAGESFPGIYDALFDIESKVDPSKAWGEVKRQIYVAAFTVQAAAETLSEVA
Experimental: To confirm the binding capacity of the compounds of the present invention to PSMA, the following experiment was performed.
RPMI1640 supplemented with 1% BSA (bovine serum albumin) was used as a buffer solution.
[^125I]30 (0.1 nM) obtained in Comparative Example 1 was added to a vessel containing 22RV1 cells (5×10^4), to which the compound represented by formula 1 was loaded at 9 concentrations (1.00×10^−4˜1.00×10^−12 M), followed by stirring at 37° C. for 2 hours. Upon completion of the stirring, the vessel was washed with PBS solution (2 mL) three times, and then the radioactivity was measured using a gamma counter (2480 WIZARD2 Gamma Counter PerkinElmer Co., MA). The 50% inhibition concentration (IC50) for each compound was calculated using a GraphPad Prism program (GraphPad Software, Inc., CA)
(Maresca, K. P. et al., 2009, J. Med. Chem. 52, 347-357)

[1] = Measurement of lipophilicity (log P), n-octanol/PBS; format: physicochemical; conditions: mean of 3
Experimental: Each of the [^68Ga]1 compounds (1˜2 mci) synthesized in Example 14 was transferred into a vial, and the solvent was removed, to which 1 mL of n-octanol and 1 mL of PBS were added, and the lid was well closed, followed by mixing with a vortex for 1 minute. After the layers were separated, 0.1 mL was taken from each layer and the radiation dose was measured. The radiation dose was measured by repeating 3 times, and the mean value was obtained.

[2] = 22RV1 cells, [^125I]30 0.1 nM, 37° C., 2 hours, read-out: IC50
[3] = 22RV1 cells, [^125I]30 0.1 nM, 37° C., 2 hours, read-out: Ki value

SMILES	IC50 (PSMA; [2])	Ki (PSMA; [3])	other results
O=C(O)CCC(NC(=O)NC(CCC(=O)N(CC(=O)O)Cc1cn(CCOCCNC(=O)CN2CCN3CCN4CCN(CC2)CC(=O)[O][Ga]([O]C(=O)C3)[O]C(=O)C4)nn1)C(=O)O)C(=O)O (centres unmarked) [Ga-1p]	0.703 ± 0.145 µM	0.13 ± 0.0266 µM	–
Cc1ccc(CCCC(=O)NCCCC[C@H](NC(=O)CN2CCN3CCN4CCN(CC2)CC(=O)[O][Ga]([O]C(=O)C3)[O]C(=O)C4)C(=O)NCCOCCOCC(=O)N(CCCC[C@H](NC(=O)N[C@@H](CCC(=O)O)C(=O)O)C(=O)O)CC(=O)O)cc1 [Ga-1g]	0.0184 ± 0.00035 µM	0.00582 ± 0.00011 µM	binding force / binding capacity to PSMA, in words (PSMA; 22RV1 cells): higher binding capacity than the compound Ga-1e
O=C(O)CC[C@H](NC(=O)N[C@@H](CCCCN(CC(=O)O)C(=O)COCCOCCNC(=O)[C@H](CCCCNC(=O)CCCc1ccccc1)NC(=O)CN1CCN2CCN3CCN(CC1)CC(=O)[O][Ga]([O]C(=O)C2)[O]C(=O)C3)C(=O)O)C(=O)O [Ga-1f]	0.0257 ± 0.00506 µM	0.00812 ± 0.0016 µM	binding force / binding capacity to PSMA, in words (PSMA; 22RV1 cells): higher binding capacity than the compound Ga-1e
O=C(O)CC[C@H](NC(=O)N[C@@H](CCCCN(CCC(=O)O)C(=O)CCc1cn(CCOCCNC(=O)CN2CCN3CCN4CCN(CC2)CC(=O)[O][Ga]([O]C(=O)C3)[O]C(=O)C4)nn1)C(=O)O)C(=O)O [Ga-1d]	0.0753 ± 0.0186 µM	0.0186 ± 0.0046 µM	–
O=C(O)CC[C@H](NC(=O)N[C@@H](CCCCN(CC(=O)O)C(=O)COCCNC(=O)[C@H](CCCCNC(=O)CCCc1ccc(I)cc1)NC(=O)CN1CCN2CCN3CCN(CC1)CC(=O)[O][Ga]([O]C(=O)C2)[O]C(=O)C3)C(=O)O)C(=O)O [Ga-1k]	0.0639 ± 0.00609 µM	0.0127 ± 0.00107 µM	–
O=C(O)CC[C@H](NC(=O)N[C@@H](CCCCN(CC(=O)O)C(=O)COCCNC(=O)CN1CCN2CCN3CCN(CC1)CC(=O)[O][Ga]([O]C(=O)C2)[O]C(=O)C3)C(=O)O)C(=O)O [Ga-1i]	0.069 ± 0.00327 µM	0.0144 ± 0.00068 µM	–
O=C(O)CC[C@H](NC(=O)N[C@@H](CCCCNC(=O)N(Cc1cn(CCOCCNC(=O)CN2CCN3CCN4CCN(CC2)CC(=O)[O][Ga]([O]C(=O)C3)[O]C(=O)C4)nn1)c1ccncc1)C(=O)O)C(=O)O [Ga-1b]	0.237 ± 0.0471 µM	0.0187 ± 0.00187 µM	–
O=C(O)CC[C@H](NC(=O)N[C@@H](CCC(=O)N(CCOCCOCCNC(=O)CN1CCN2CCN3CCN(CC1)CC(=O)[O][68Ga]([O]C(=O)C2)[O]C(=O)C3)CC(=O)O)C(=O)O)C(=O)O [[^68Ga]1n]	–	–	logP [1]: −3.06
O=C(O)CCC(NC(=O)NC(CCCCN(CC(=O)O)C(=O)COCCOCCNC(=O)CN1CCN2CCN3CCN(CC1)CC(=O)[O][Ga]([O]C(=O)C2)[O]C(=O)C3)C(=O)O)C(=O)O (centres unmarked) [Ga-1e]	0.0474 ± 0.00178 µM	0.0129 ± 0.00049 µM	–
O=C(O)CC[C@H](NC(=O)N[C@@H](CCCCNC(=O)NCc1cn(CCOCCNC(=O)CN2CCN3CCN4CCN(CC2)CC(=O)[O][Ga]([O]C(=O)C3)[O]C(=O)C4)nn1)C(=O)O)C(=O)O [Ga-1a]	0.571 ± 0.136 µM	0.0699 ± 0.0298 µM	binding force / binding capacity to PSMA, in words (PSMA; 22RV1 cells): relatively low binding force to PSMA; binding force to PSMA, times higher than that of Ga-1a (PSMA; compared with Ga-1a): about 18.6 times
O=C(O)CC[C@H](NC(=O)N[C@@H](CCC(=O)N(CCOCCOCCNC(=O)CN1CCN2CCN3CCN(CC1)CC(=O)[O][Ga]([O]C(=O)C2)[O]C(=O)C3)CCC(=O)O)C(=O)O)C(=O)O [Ga-1o]	1.14 ± 0.0824 µM	0.282 ± 0.0204 µM	–
O=C(O)CC[C@H](NC(=O)N[C@@H](CCC(=O)N(CCOCCOCCNC(=O)CN1CCN2CCN3CCN(CC1)CC(=O)[O][Ga]([O]C(=O)C2)[O]C(=O)C3)CC(=O)O)C(=O)O)C(=O)O [Ga-1n]	0.174 ± 0.00387 µM	0.0321 ± 0.00071 µM	–
O=C(O)CC[C@H](NC(=O)N[C@@H](CCCCN(CC(=O)O)C(=O)CCc1cn(CCOCCNC(=O)CN2CCN3CCN4CCN(CC2)CC(=O)[O][Ga]([O]C(=O)C3)[O]C(=O)C4)nn1)C(=O)O)C(=O)O [Ga-1c]	0.0212 ± 0.00206 µM	0.00376 ± 0.00037 µM	–
O=C(O)CCC(NC(=O)NC(CCCCN(CC(=O)O)C(=O)COCCOCCNC(=O)C(CCCCNC(=O)CCCc1ccc(I)cc1)NC(=O)CN1CCN2CCN3CCN(CC1)CC(=O)[O][Ga]([O]C(=O)C2)[O]C(=O)C3)C(=O)O)C(=O)O (centres unmarked) [Ga-1h]	–	–	IC50 (PSMA): 0.011 ± 0.00035 µM; Ki (PSMA): 0.003 ± 0.0001 µM; binding force / binding capacity to PSMA, in words (PSMA; 22RV1 cells): higher binding capacity than the compound Ga-1e; also recorded: highest binding capacity
